# Article PMC6270099, “Synthesis, Biological Evaluation, and Pharmacokinetic Study of Novel Liguzinediol Prodrugs” (Molecules, 2013)
# Marks after values point to notes of the source that are not given here.
# Experiments:
# [1] = Pharmacokinetics of LZDO in rats after intragastric administration of prodrug 3; type: in vivo, rat; conditions: rats (data not shown)
# Experimental: Pharmacokinetic parameters including half-life, clearance, and bioavailability are important properties of a drug candidate. […] The major pharmacokinetic parameters of LZDO were calculated using a noncompartment model based on statistical moment. The pharmacokinetic parameters of LZDO after intragastric administration of prodrug 3 at 10, 20 and 40 mg/kg in rats are summarized in Table 2. The pharmacokinetic parameters of LZDO after intragastric administering LZDO at 10, 20 and 50 mg/kg in rats are summarized in Table 3 [19]. Prodrug 3 was converted completely within 2 h in rats (data not shown).
# Sprague-Dawley rats (male, weighing 200 ± 20 g) were obtained from Slack Laboratory Animal Site (Shanghai, China) and kept in an environmentally controlled breeding room for at least five days before experimentation. The rats were fasted overnight but with free access to water before the test. Animal welfare and experimental procedures were strictly in accordance with the guide for the care and use of laboratory animals. […] The collected blood samples were pretreated by the aforementioned method (sample dilutions were made when necessary) and the concentrations of LZDO and prodrug 3 in each sample were finally determined based on the validated HPLC method. […]
# [2] = system: isolated Langendorff-perfused rat hearts; assay: Ex vivo Langendorff-perfused rat heart, cardiac performance; conditions: for ∆% +dP/dtmax / ∆% LVDP / ∆% −dP/dtmax: increase vs. control; for LVDP: isolated rat heart, mean ± SD, n = 6
# Experimental: The cardiac contractility and safety of prodrugs 3–5 were evaluated on the myocardium in normal isolated rat hearts with LZDO as a positive control. Prodrugs 3–5 exerted positive inotropic effects in a dose-dependent manner. The increased rate in left ventricular developed pressure (LVDP, accepted as contractile force), +dP/dtmax (used as an index of contractility), the maximum rate of pressure decrease of the left ventricle ([…], used as an index of diastolic function) and the heart rate (HR, used as an index of heart muscle oxygen consumption) of these compounds vs. control are listed in Table 1.
# All commercial reagents and solvents were used without further purification unless otherwise specified. Melting points were determined using a model Buchi B-450 apparatus. ESI-MS were recorded on a TOF mass spectrometer (Applies-Biosystem Mariner). IR spectra were acquired by using a THERMO IR spectrometer Model Nicolet-100. ^1H- and ^13C-NMR spectra (500/125 MHz) were recorded on a Bruker Advance 500 spectrophotometer. Mass spectra were recorded on a ZAB-HS mass spectrometer and are reported as m/z values. HPLC analysis was conducted on a Waters 2695 HPLC instrument equipped with a UV detector (model 2489). LZDO and prodrugs 3–5 were analysed by HPLC, and their purity was confirmed to be greater than 98.0%. In vitro metabolic stability analysis was conducted by a HPLC method, using stock standard solutions of LZDO and prodrugs that were prepared in water at a concentration of 30 mM. The positive inotropic effects on the myocardium of LZDO and prodrugs 3–5 in vitro were evaluated on Langendorff-perfused hearts isolated from normal Sprague-Dawley rats. A HPLC method was applied to measure the rat plasma concentrations of LZDO and prodrug 3 after intragastric administration of prodrug 3 in the rats.
# Sprague-Dawley adult male rats weighing 260–320 g were anaesthetised by intraperitoneal administration of 20% urethane (1.2 g/kg). The hearts were quickly removed and placed into an ice-cold modified buffer until contractions ceased. The heart was cleaned of surrounding tissues, mounted on the aortic cannula of the Langendorff perfusion system apparatus, and perfused with oxygenated buffer (mM): NaCl 117, KCl 5.7, CaCl2 1.8, MgCl2 1.7, NaHCO3 4.4, NaH2PO4 1.5, HEPES 20 and glucose 11. The buffer was equilibrated with 95% O2 and 5% CO2 and adjusted to pH 7.4 with NaOH before it entered the heart. An epicardial electrogram was registered using two stainless steel electrodes, one attached to the apex of the heart and the other to the aortic cannula. To obtain an isovolumetrically beating preparation, a latex balloon filled with water and connected by a catheter to a transducer was inserted through the left atrium into the left ventricle and inflated to provide an end-diastolic pressure between 8 and 12 mm Hg. Before each experimental protocol was initiated, the isolated hearts were set at a mean arterial pressure of 60–80 mm Hg and allowed to stabilise at 37 °C for 40–60 min. The isolated rat hearts were then perfused in sequence with 1, 10, and 100 μM of LZDO and prodrugs 3–5 in each group. A RM6240B/C four channel physiological recording instrument (Chengdu Instrument Factory, Chengdu, China) was used for continuous recording of LVSP, LVEDP, HR (derived from electrogram), +dP/dtmax and −dP/dtmax throughout the experiments. The criteria for established stability were LVDP > 50 mmHg, +dP/dtmax > 1,600 mmHg·s^−1, heart rate > 180 beats·min^−1 and normal sinus rhythm. The hearts were not studied if they had weak contractility (+dP/dtmax < 1,600 mmHg·s^−1) and severe arrhythmia. Diastolic balloon pressure was maintained at 8 mmHg. LVDP was calculated as the difference between the systolic and diastolic pressures. The results are expressed as the mean value of hemodynamic variables (n = 6). Statistical analysis was performed using SPSS for Windows (version 13.0). Data were analyzed by One-way ANOVA. […]
SMILES,+dP/dtmax ([2]; 1 μM),HR ([2]; 1 μM) [beat·min^−1],−dP/dtmax ([2]; 1 μM),∆% +dP/dtmax ([2]; 1 μM) [%],∆% LVDP ([2]; 1 μM) [%],∆% −dP/dtmax ([2]; 1 μM) [%],LVDP ([2]; 1 μM),+dP/dtmax ([2]; 10 μM),HR ([2]; 10 μM) [beat·min^−1],−dP/dtmax ([2]; 10 μM),∆% +dP/dtmax ([2]; 10 μM) [%],∆% LVDP ([2]; 10 μM) [%],∆% −dP/dtmax ([2]; 10 μM) [%],LVDP ([2]; 10 μM),+dP/dtmax ([2]; 100 μM),HR ([2]; 100 μM) [beat·min^−1],−dP/dtmax ([2]; 100 μM),∆% +dP/dtmax ([2]; 100 μM) [%],∆% −dP/dtmax ([2]; 100 μM) [%],LVDP ([2]; 100 μM),other results
CC(=O)OCc1nc(C)c(COC(C)=O)nc1C [compound 3],"1,641 ± 29 mmHg/s",203 ± 15,"−1,139 ± 76 mmHg/s",1.9 ± 0.5,15.0 ± 5.5,4.9 ± 5.9,63 ± 2 ^b mmHg,"1,768 ± 91 ^bd mmHg/s",204 ± 14,"−1,184 ± 75 ^a mmHg/s",9.8 ± 7.0,26.3 ± 7.7,9.0 ± 5.1,69 ± 1.1 ^bd mmHg,"2,123 ± 82 ^bdf mmHg/s",205 ± 26,"−1,313 ± 70 ^bdf mmHg/s",31.8 ± 5.3,20.9 ± 5.1,79 ± 1.6 ^bdf mmHg,"time to complete conversion of prodrug in rats [1]: ≤ 2 h; ∆% LVDP ([2]; 100 μM): 44.7 ± 6.6%; positive inotropic effect on the myocardium ([2]; normal isolated rat hearts, 1, 10, 100 μM): most potent prodrug"
"Cc1nc(COC(=O)C(C)C)c(C)nc1COC(=O)C(C)C [compound 4, 2,5-Di-iso-butyryloxymethyl-3,6-dimethylpyrazine]","1,669 ± 103 mmHg/s",213 ± 46,"−1,101 ± 102 mmHg/s",2.2 ± 3.4,17.4 ± 9.8,5.6 ± 8.3,63 ± 3 ^b mmHg,"1,765 ± 52 ^a mmHg/s",196 ± 16,"−1,196 ± 54 ^bc mmHg/s",4.9 ± 5.4,14.2 ± 10.0,9.9 ± 9.5,60 ± 4 ^a mmHg,"1,952 ± 49 ^bdf mmHg/s",191 ± 29,"−1,399 ± 61 ^bdf mmHg/s",9.0 ± 8.9,16.7± 15.2,73 ± 2.3 ^bdf mmHg,
"Cc1nc(COC(=O)c2ccccc2)c(C)nc1COC(=O)c1ccccc1 [compound 5, 2,5-Dibenzoyloxymethyl-3,6-dimethylpyrazine]","1,688 ± 95 mmHg/s",189 ± 30,"−1,095 ± 45 mmHg/s",1.0 ± 1.1,5.3 ± 3.3,1.3 ± 0.8,55 ± 5 mmHg,"1,831 ± 14 ^bd mmHg/s",196 ± 40,"−1,245 ± 48 ^bd mmHg/s",9.9 ± 5.9,13.9 ± 7.4,15.3 ± 2.8,59 ± 2.5 ^b mmHg,"1,962 ± 70 ^bdf mmHg/s",213 ± 41,"−1,314 ± 63 ^bde mmHg/s",17.6 ± 6.8,21.7 ± 7.2,64 ± 2.4 ^bde mmHg,∆% LVDP ([2]; 100 μM): 24.5 ± 11.2%
